Assay results published in US5969138A, “Pyrrolidinone derivatives” (Mitsui Chemicals, Inc., priority 1996, dated 1999).

Assays:
σ1 receptor = target: T1, σ1 receptor (Cavia porcellus, UniProt Q60492); assay: Radioreceptor assay for a σ1 receptor (3H-(+)pentazocine binding, whole brain P2 fraction); conditions: guinea pig brain P2 fraction, 3 nM 3H-(+)pentazocine, room temperature, 2 hours; read-out: Affinity for a receptor, Ki σ1
T1 construct: prepared from a whole brain of a guinea pig without cerebellum and medulla; from tissue; host or cells: P2 fraction of guinea pig whole brain without cerebellum and medulla

D2 receptor = target: T2, D2 receptor (Rattus norvegicus, UniProt P61169); assay: Radioreceptor assay for D2 receptor (3H-spiperone, cerebral striatal homogenate); format: binding; conditions: read-out: Affinity for a receptor, Ki D2
T2 construct: from tissue; host or cells: rat cerebral striatal homogenate
Protocol: Evaluation Example 2 (Radioreceptor assay for D2 receptor) ^3 H-spiperone (Amersham) and a test drug were incubated with a homogenate of rat cerebral striatal site as described in D. R. Burt et al., Proc.Natl.Acad.Sci.U.S.A. 72:4655 (1975), and Ki value was determined as described in the above r radioreceptor assay.

[1] = Safety: simple acute toxicity for a mouse; format: in vivo
Protocol: Evaluation Example 8 (Safety)
For the experiment, male Std:ddY mice aged 5 weeks were used. The mice were weighed, and then calmed in an observation cage for more than 1 hour. To the mice, a test drug was orally administered in a dose of 300 mg/kg to observe them for general symptoms until 2 hours.

sigma receptor = conditions: background; cited from earlier work
[2] = tested on: head weaving behavior induced by phencyclidine (PCP); assay: Anti-PCP effect: inhibition of phencyclidine-induced head weaving; format: in vivo, rat (male Wistar(ST)); conditions: oral treatment before 60 min, PCP 7.5 mg/kg i.p.; for ED50 Anti-PCP: rat, 60 min; for ED50: Rattus norvegicus, po, 1 h
Protocol: Evaluation Example 4 (Anti-PCP effect)
Antipsychotic activity for a test drug was studied by means of head weaving behavior induced by phencyclidine (PCP) for a rat. For the experiment were used male Wistar(ST) rats aged 4weeks (Nippon SLC). The rats were placed in a measuring cage and calmed 1 hour before the initiation of the test. To the rats was orally administered a test drug and after 60 min was intraperitoneally administered PCP in a dose of 7.5 mg/kg. After 20 min, head weaving was counted for 10 min. Efficacy of the drug was evaluated by determining an inhibition (%) compared with the control group from the average of the scores of the test-drug groups, and then estimating a ED50 value.

[3] = tested on: head weaving behavior induced by a σ-receptor agonist SKF-10047; assay: Anti-SKF effect: inhibition of SKF-10047-induced head weaving; format: in vivo, mouse (male ddY); conditions: 1 h; mouse, oral treatment before 60 min; SKF-10047 20 mg/kg s.c.
Protocol: Evaluation Example 3 (Anti-SKF effect)
(§1) Antipsychotic activity for a test drug was studied by means of head weaving behavior induced by a σ-receptor agonist SKF-10047 for a mouse. For the experiment were used 10 male ddY mice aged 5 weeks (Nippon SLC) per a group. The mice were placed in a measuring cage and calmed 1 hour before the initiation of the test. To the mice was orally administered a test drug and after 60 min was subcutaneously administered SKF-10047 in a dose of 20 mg/kg. After 20 min, head weaving was counted for 10 min.

Blood kinetics = format: in vivo, dog (male beagle); conditions: 10 mg/kg, plasma; for Cmax / half-life: beagle dog; for Cmax: HPLC; for bioavailability: dog, po, read-out: Extent of Bioavailability; for half-life: estimated from intravenous administration
Protocol: Evaluation Example 7 (Blood kinetics)
For the experiment, male beagle dogs were employed. A test drug was intravenously or orally administered in a dose of 10 mg/kg. Blood samples were collected at 0.25, 0.5, 1, 2, 4, 6 and 24 hours after administering the test drug, and the samples were centrifuged to separate plasma, for which a plasma level of the test drug was determined by HPLC. Half-life of the test drug in blood was estimated from the results at the intravenous administration. An extent of bioavailability is expressed as a rate of AUC at the oral administration to AUC at the intravenous administration.

[4] = tested on: reverse tolerance development to methamphetamine (stereotyped behavior); assay: Effect on reverse tolerance development due to repetitive administration of methamphetamine; format: in vivo, rat (male Std:Wistar(ST)); conditions: rat
Protocol: Evaluation Example 6 (Effect to reverse tolerance development due to repetitive administration of methamphetamine) For the experiment, male Std:Wistar(ST) rat (Nippon SLC) aged 5 weeks were used. A test drug, the compound of formula (IV) described in JP-A 7-252219 or the compound of formula (V) described in JP-A 9-40667 was dissolved in purified water or 0.5% C.M.C./saline. Methamphetamine (mAMP) was dissolved in saline. Dosage volume was 1 mL/kg body weight.
The drugs were repetitively administered for 10 days with a regimen that to a rat, a test drug was orally or intraperitoneally administered and after 60 min mAMP was intraperitoneally administered in a dose of 2 mg/kg. To a normal group, solvent alone was administered in place of the combination of the test drug and mAMP. To a control group, solvent was orally or intraperitoneally administered, and then intraperitoneally mAMP was additionally administered.
After the repetitive administration, there was provided a withdrawal period for 7 days during which the test drug or mAMP was not administered. After the withdrawal, the test drug was discontinued and mAMP was administered in a dose of 2 mg/kg, and then stereotyped behavior of the animal was observed.
After administering mAMP, stereotyped behavior was rated in accordance with the following scale, for 1 min every 10 min until 60 min.
The results are expressed as an inhibition (%) of reverse tolerance development calculated from the following equation, using a total score for six minutes: Inhibition of reverse tolerance development (%)=100-A […]
wherein A represents a value calculated from the following equation:
A=[{(Score for the test drug group)-(Score for the normal group)}/{(Score for the control group)-(Score for the normal group)}]×100

[5] = tested on: head weaving behavior induced by a receptor agonist SKF-10047; assay: Persistence of anti-SKF effect (SKF-10047 4 hours after test drug); format: in vivo, mouse (male ddY); conditions: mouse, oral, SKF-10047 20 mg/kg s.c. 4 hours after test drug
Protocol: Evaluation Example 5 (Persistence of anti-SKF effect) Procedure
as §1, with “Persistence of antipsychotic” for “Antipsychotic”, “receptor” for “σ-receptor”, “4 hours” for “60 min”

[6] = 300 mg/kg oral, observed until 2 hours

T1 sequence (Q60492 whole entry): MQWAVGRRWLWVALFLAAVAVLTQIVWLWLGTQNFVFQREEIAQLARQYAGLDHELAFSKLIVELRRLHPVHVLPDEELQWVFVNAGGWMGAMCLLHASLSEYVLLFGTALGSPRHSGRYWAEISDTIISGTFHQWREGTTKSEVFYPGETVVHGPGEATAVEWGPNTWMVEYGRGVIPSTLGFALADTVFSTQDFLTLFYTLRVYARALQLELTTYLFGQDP
T2 sequence (P61169 whole entry): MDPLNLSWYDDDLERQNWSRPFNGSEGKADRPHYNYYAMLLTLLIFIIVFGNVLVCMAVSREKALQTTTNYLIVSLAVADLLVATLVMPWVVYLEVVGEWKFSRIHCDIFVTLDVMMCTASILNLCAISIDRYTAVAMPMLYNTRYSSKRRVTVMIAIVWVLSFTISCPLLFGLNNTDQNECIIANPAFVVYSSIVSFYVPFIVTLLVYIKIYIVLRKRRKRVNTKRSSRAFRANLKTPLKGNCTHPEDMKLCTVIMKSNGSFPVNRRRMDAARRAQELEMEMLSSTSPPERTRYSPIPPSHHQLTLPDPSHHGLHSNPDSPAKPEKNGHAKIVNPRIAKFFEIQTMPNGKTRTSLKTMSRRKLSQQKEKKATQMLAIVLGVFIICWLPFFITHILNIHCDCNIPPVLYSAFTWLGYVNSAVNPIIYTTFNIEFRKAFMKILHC

SMILES | Ki (σ1 receptor) [nM] | Ki (D2 receptor) [nM] | Convulsion/Treatment [1, 6] | ED50 [3] [mg/kg] | ED50 [2] [mg/kg] | other results
CCOCCN1CCN(CC2CCN(c3ccc(Cl)cc3)C2=O)CC1 (stereo not shown) [compound 8] | 14 | > 3300 | 0/3 |  |  | Death/Treatment ([1]; in vivo, po, 300 mg/kg): 0/3
C[C@@H]1CN(CCCn2c3ccccc3c3ccccc32)C[C@H](C)N1 [Rimcazole, reference compound] |  | 11600 |  |  |  | affinity or specificity to a sigma receptor (sigma receptor): inadequate affinity or specificity to a sigma receptor
COCCN1CCN(CC2CCN(c3cccc(Br)c3)C2=O)CC1 (stereo not shown) [compound 18] | 7.5 | > 2800 |  |  |  | 
COCCN1CCN(C[C@H]2CCN(c3ccc(Cl)cc3)C2=O)CC1 [compound 37] |  |  |  |  |  | ED50 Anti-PCP [2]: 1.15 mg/kg
COCCN1CCN(CC2CCN(c3ccc(Cl)cc3)C2=O)CC1 (stereo not shown) [compound 2] | 85 | > 3300 | 0/6 | 2.1 | 1.3 | Death/Treatment ([1]; in vivo, po, 300 mg/kg): 0/6
COCCN1CCN(C[C@H]2CCN(c3ccc(Cl)cc3)C2=O)CC1 [compound 39] |  |  |  |  |  | ED50 Anti-PCP [2]: 1.08 mg/kg
COCCN1CCN(CC2CCN(c3ccc(Br)cc3)C2=O)CC1 (stereo not shown) [compound 16] |  |  | 0/5 | 0.52 | 1.9 | Death/Treatment ([1]; in vivo, po, 300 mg/kg): 0/5
COC1CCN(C[C@H]2CCN(c3ccc(Cl)cc3)C2=O)CC1 [Compd. of formula (V), reference compound] |  |  | 1/3 |  |  | Cmax (Blood kinetics): 460 ng/mL; bioavailability (Blood kinetics): 64.3%; half-life (Blood kinetics): 1.5 h; Inhibition of reverse tolerance ([4]; 10.0 mg/kg intraperitoneal): 81.7%; Inhibition of reverse tolerance ([4]; 30.0 mg/kg intraperitoneal): 87.8%; ED50 [5]: 23.2 mg/kg; Death/Treatment [1, 6]: 0/3
C#CCOCCN1CCN(CC2CCN(c3ccc(Cl)cc3)C2=O)CC1 (stereo not shown) [compound 10] | 10 | > 3300 |  |  |  | 
CCCCN1CCN(CC2CCN(c3cccc(C(F)(F)F)c3)C2=O)CC1 (stereo not shown) [Compound of formula (IV), reference compound] |  |  | 5/5 | 14 | 11 | Inhibition of reverse tolerance ([4]; 30.0 mg/kg intraperitoneal): 92.9%; ED50 [5]: > 100 mg/kg; Death/Treatment [1, 6]: 5/5
COCCN1CCN(C[C@H]2CCN(c3ccc(Cl)cc3)C2=O)CC1 [compound 38] |  |  |  |  |  | ED50 Anti-PCP [2]: 1.48 mg/kg
COCCN1CCN(C[C@H]2CCN(c3ccc(Cl)cc3)C2=O)CC1 [compound 21] | 72 | > 3900 | 0/4 | 0.77 | 0.75 | Cmax (Blood kinetics): 1520 ng/mL; bioavailability (Blood kinetics): 83.1%; half-life (Blood kinetics): 3.5 h; Inhibition of reverse tolerance ([4]; 7.5 mg/kg oral): 81.0%; Inhibition of reverse tolerance ([4]; 15.0 mg/kg oral): 93.9%; ED50 [5]: 3.19 mg/kg; Death/Treatment [1, 6]: 0/4
